# Data reported in patent US20120128654A1, “Allantoin Administration for the Treatment of Neurodegenerative Disease and Neurotrauma” (UNIVERSITY OF CINCINNATI, priority 2009, published 2012).
# Test system: nigral THir neurons
# Assay: Unbiased stereological counts of THir cells in the substantia nigra after striatal 6-OHDA
# Format: in vivo, Sprague Dawley rats
# Conditions: for number of surviving THir neurons in the lesioned SN relative to the intact side: s.c. pellets 3 days prior to intrastriatal 6-OHDA, 6 weeks post-6-OHDA (experiment 1); for protection of nigral THir neurons against striatal 6-OHDA infusion: s.c. pellets, 6 weeks post-6-OHDA, vs control
# Description: Rats were anesthetized prior to surgery with Equi-Thesin (0.3 ml/100 g body weight i.p.; chloral hydrate 42.5 mg/ml+sodium pentobarbital 9.72 mg/ml), their heads shaved, and then they were placed in a stereotaxic frame. Their skin was swabbed with Betadyne followed by 70% ETOH. The scalp was then opened to expose the skull. Two 1 mm holes were drilled into the skull and rats were injected in two sites in the striatum with 6-OHDA (MP Biomedicals, Solon, Ohio; 5 μg/μl 6-OHDA in 0.2% ascorbic acid, 0.9% saline solution). The coordinates for these injections were AP −1.6 mm, ML +2.4 mm, DV −4.2 mm and AP −0.2 mm, +ML 2.6 mm, DV −7.0 mm. The needle was zeroed at the skull directly above the injection site in order to target the DV coordinate. For each injection, the needle was lowered slowly to the injection site and 1 minute elapsed before injection commenced, 6-OHDA was injected at 0.5 μl/minute and at the end of the injection the needle was held in place for an additional 2 minutes prior to retraction. The wound area was cleaned with Betadine solution and the scalp was closed with surgical wound clips. This lesion paradigm results in a progressive loss of TH phenotype and frank DA cell death.
# Animals were deeply anesthetized (60 mg/kg, pentobarbital, i.p.) and perfused intracardially with warm 0.9% saline containing 1 ml/L 10,000 USP heparin followed by ice-cold 0.9% saline. For immunoshistochemistry brains were removed, post fixed for 24 hours in 4% paraformaldehyde and transferred to 30% sucrose in 0.1M PO4 buffer. For determination of purine levels brains were immediately removed and flash frozen in 3-methyl butane. Brains were stored at −80° C. until analysis.
# Brains were frozen on dry ice and sectioned at a 40 μm thickness using a sliding microtome. Every sixth section through the SN was processed for labeling with antisera against TH. Following blocking in 10% normal goat serum, tissue was incubated in primary antisera directed against TH (Chemicon MAB318, mouse anti TH 1:4,000) overnight at room temperature. Following primary incubation, sections were incubated in biotinylated secondary antisera against mouse IgG (Chemicon AP124B, 1:400) followed by the Vector ABC detection kit employing horseradish peroxidase (Vector Laboratories, Burlingame, Calif.). Antibody labeling was visualized by exposure to 0.5 mg/ml 3,3′ diaminobenzidine (DAB) and 0.03% H2O2 in Tris buffer. Sections were mounted on subbed slides, dehydrated to xylene and coverslipped with Cytoseal (Richard-Allan Scientific, Waltham, Mass.).
# Unbiased stereological counts of THir cells were performed using a BX52 Olympus microscope (Olympus America Inc.) interfaced with Microbrightfield stereological software and a Microfire CCD camera (Optronics, Goleta, Calif.). Utilizing 2 μm guard zones and a 50 μm×50 μm counting frame a grid size of 112 μm×183 μm was employed to assure that all coefficient of error values were ≦0.10. Using the optical fractionator principle, the regions of interest were individually outlined under a low magnification (1.25×). Using a 60× magnification lens with a 1.4 N/A the section thickness was empirically determined by first bringing the top of the section into focus and then using Microbrightfield software to step through the z-axis in 1 μm increments until the very bottom of the section was in focus. […]
Structure (SMILES),number of surviving THir neurons in the lesioned SN relative to the intact side,protection of nigral THir neurons against striatal 6-OHDA infusion
NC(=O)NC1NC(=O)NC1=O (stereo not shown) [allantoin],61%±7.9%,significantly protected
OC[C@H]1O[C@@H](n2cnc3c(O)ncnc32)[C@H](O)[C@@H]1O [inosine],56%±9.0%,significantly protected
